Consider 84 compounds from ChEMBL document CHEMBL1157539, “Thousands of chemical starting points for antimalarial lead identification” (Nature, 2010).

In the assay the test system is Plasmodium falciparum. Put plainly: GSK_TCMDC: Inhibition of Plasmodium falciparum 3D7 in whole erythrocytes, using parasite LDH activity as an index of growth. The conditions noted are these: Plasmodium falciparum, 3D7. The format is functional, organism-based.
The compound `CC(C)n1c(C(C)(C)C)cc2c3c(N)nc(N)nc3ccc21` showed an XC50 of 3.2 nM. Next, `O=C(Nc1ccc(OC2CCN(Cc3ccc(F)cc3)CC2)c(Cl)c1)c1ccccc1`: 794 nM. `O=C(Nc1ccc(C(F)(F)F)cc1)N[C@H]1CCN(CCCCCNC(=O)C2CC2c2ccc(Cl)c(Cl)c2)C1` (some centres undefined) displayed an XC50 of 1100 nM. On to `CCCCCCc1cc(OC)c(OC)cc1C(C)Nc1ccnc2cc(Cl)ccc12` (centres undefined), for which the XC50 stood at 488 nM. Regarding `O=C(NC1CCN(Cc2ccccc2)CC1)c1ccc(-c2nc3cc(Cl)c(F)cc3[nH]2)cc1`, the XC50 turned out to be 245 nM. Next, `CCn1ccc2c(N3CCCS3(=O)=O)cc(C(=O)N[C@@H](Cc3ccccc3)[C@H](O)CNC(C)(C)c3cccc(OC)c3)cc21`: 41.6 nM; `CC(CN(C)C)C(=O)Nc1ccc(-c2ccc(-c3nc4cc(F)ccc4[nH]3)cc2)cc1` (centres undefined): 773 nM. Take `CC1CCCCC1N(C)C1CCN(CCCNC(=O)C=Cc2ccc(Cl)cc2Cl)CC1` (centres undefined): the XC50 came out at 650 nM. Turning to `COc1cccc(Nc2nc(N)c3ccccc3n2)c1`, the XC50 was 934 nM. The compound `CCN(CC)c1ccc(NC(=S)NC2CCN(CCCCCNC(=O)/C=C/c3ccc(Cl)c(Cl)c3)CC2)cc1` gave an XC50 of 883 nM. `COc1ccc(S(=O)(=O)N(c2cc(Br)cc3c2OCC3)S(=O)(=O)c2ccc(OC)c(N3CCN(C)CC3)c2)cc1N1CCN(C)CC1` had an XC50 of 1170 nM. Next, `O=C(/C=C/c1cccs1)NCC(NCCCNc1cc(=O)c2ccccc2[nH]1)c1cc(Br)cc(Br)c1` (centres undefined): 888 nM; `CN(C)CCNc1cc(-c2ccc3ccccc3c2)nc2ccccc12`: 350 nM; `O=[N+]([O-])c1nc(Br)n(Cc2ccc(Cl)cc2)n1`: 360 nM. Consider `CCc1sc(N2CCN(C)CC2)nc1C(=O)Nc1ccc(F)cc1C(F)(F)F`, for which the XC50 stood at 178 nM. In the case of `CN1CCN(CC(=O)Nc2cccc(-c3ccc(-c4nc5cc(C(F)(F)F)ccc5[nH]4)s3)c2)CC1`, the XC50 was 309 nM. Next, `O=c1cc(NCCC(CNCc2ccc(Br)o2)NCc2cc(Br)cc(Br)c2)[nH]c2ccccc12` (centres undefined): 860 nM; `Cc1ccc(NC(=O)N2CCC(n3c(-c4ccccc4)nc4cccnc43)CC2)cc1F`: 534 nM. Compound `N=C(/N=C(/NCCCCCCN/C(=N\C(=N)Nc1ccc(Cl)cc1)N1CCCCC1)N1CCCCC1)Nc1ccc(Cl)cc1` returned an XC50 of 256 nM.

Turning to `Cc1cccc(CC2CC(=O)N(c3ccc([N+](=O)[O-])cc3)C2=O)c1` (centres undefined), the XC50 worked out at 200 nM.

`O=C(/C=C/c1ccc(Cl)c(Cl)c1)N1CCC(CN2CCC(c3c[nH]c4cc(C(F)(F)F)ccc34)CC2)CC1` displayed an XC50 of 796 nM. `Cc1nc(C)c(C2CCC(c3ccc(Cl)cc3)CC2)c(O)c1Cl` (centres undefined) came in with an XC50 of 51.8 nM. Regarding `FC(F)(F)c1ccc(-c2cncc(-c3ccc(C(F)(F)F)cc3)n2)cc1`, the XC50 is 759 nM. `COC(=O)c1cccc(CNCc2cccc(-c3cccc(-c4nc5cccc(C)c5[nH]4)c3)c2)c1` gave an XC50 of 186 nM.

As to `Cc1ccccc1C1CCN(C2CCC(NC(=O)c3ccc(-c4ccccc4)s3)CC2)CC1` (centres undefined), the XC50 worked out at 661 nM. `COc1ccc2nccc(N3CCC(SCCNS(=O)(=O)c4ccc5c(c4)OCCO5)C3)c2n1` (centres undefined): the XC50 was 981 nM. The compound `Cc1nc(C)c(-c2ccc(Oc3ccc(Cl)cc3)cc2)c(O)c1I` came in with an XC50 of 957 nM.

`CSc1ccc(C=CC(=O)NC(=O)c2ccccc2O)cc1` had an XC50 of 289 nM.

`O=c1cc(NCCC(CNCc2ccoc2)NCc2cc(Br)cc(Br)c2)[nH]c2ccccc12` (centres undefined) displayed an XC50 of 910 nM. Next, `CC(C)Cn1cc(C2CCN(CCN3CCC(CNC(=O)c4ccc(-c5ccc(C#N)cc5)cc4)CC3)CC2)c2ccccc21`: 786 nM. The value for `CCC(=O)Nc1nnc(Cc2ccc(OC)c(OC)c2)s1` was 910 nM; that for `CCOC(=O)N1CCN(C(=O)Nc2ccc(Cl)cc2)CC1` was 1520 nM; that for `CN(CCC1CCN(C(=O)/C=C/c2ccc(Cl)c(Cl)c2)CC1)C1CCC(c2c[nH]c3ccccc23)CC1` (centres undefined) was 774 nM. Regarding `CC1(C)N=C(N)N=C(N)N1c1ccc(I)cc1`, the XC50 was found to be 44.4 nM.

As to `c1cc(CNCC2CCCO2)cc(-c2ccc(-c3nc4ccccc4[nH]3)s2)c1` (centres undefined), the XC50 stood at 1170 nM. `O=C1OC2(CCN(C(=O)c3ccc(-n4cnnn4)cc3)CC2)CN1Cc1ccc(Cl)c(Cl)c1` displayed an XC50 of 715 nM.

`CS(=O)(=O)N(c1ccc(F)cc1)c1cc(C(=O)N[C@@H](Cc2ccccc2)[C@H](O)CNCc2cccc(C(F)(F)F)c2)cc(N2CCCC2=O)c1`: the XC50 stood at 1350 nM. The compound `COc1ccc(O)c(C(=O)NCCc2ccc(OC)c(-c3ccc(C(C)(C)C)cc3)c2)c1` gave an XC50 of 1030 nM.

For `N#Cc1cccc(C(=O)Nc2cccc(-c3ccc(C(=O)Nc4cccnc4)cc3)c2)c1`, the XC50 amounted to 693 nM. The value for `COc1ccc(C(O)CNC(C)CCc2ccccc2)cc1C(F)(F)F` (centres undefined) was 70.4 nM; that for `O=C(NCc1cccc(C(F)(F)F)c1)c1ccc(-c2nc3cc(F)c(F)cc3[nH]2)cc1` was 776 nM. As for `Oc1ccc(CCNc2nc(NCc3ccc4cc(Cl)ccc4c3)nc(N3CCNCC3)n2)cc1`, the XC50 stood at 1020 nM.

The compound `O=C(/C=C/c1ccc(Cl)c(Cl)c1)N1CCC(CN2CCC(c3c(-c4ccc(F)cc4)[nH]c4ccccc34)CC2)CC1` registered an XC50 of 175 nM.

Turning to `CC(C)CNCc1cccc(-c2ccccc2CN(C(=O)NCCc2ccccc2)C2CCN(Cc3ccccc3)CC2)c1`, the XC50 was determined as 1170 nM. Compound `CCN(CC)CCCN(CCCN(CC)CC)c1cc(C)nc(Nc2ccc3cc(Br)ccc3c2)n1` displayed an XC50 of 567 nM.

Consider `C=C[C@H]1CN2CC[C@H]1C[C@H]2[C@H](OS(=O)(=O)O)c1ccnc2ccccc12`, for which the XC50 was determined as 624 nM.

In the case of `CC(C)C[C@H](NC(=O)c1cc2ccccc2s1)C(=O)N[C@H]1CCN(Cc2ccc(OC3CCN(C)C3)c(Cl)c2)C1` (some centres undefined), the XC50 was 782 nM.

`CN(C)CCOc1ccc(N2CCN(CCCCNC(=O)c3ccc(NC(=O)c4ccc(Cl)cc4)cc3)CC2)cc1`: the XC50 was found to be 826 nM. Take `CC(C)C[C@H](NC(=O)c1cc(-c2ccc(C(C)(C)C)cc2)no1)C(=O)O.CC(C)C[C@H](NC(=O)c1conc1-c1ccc(C(C)(C)C)cc1)C(=O)O`: the XC50 turned out to be 186 nM. Compound `COc1ccc(C(=O)Nc2ccc(-c3ccc([N+](=O)[O-])cc3)cc2)cc1CCCN(C)C` came in with an XC50 of 803 nM. In turn, `COc1cc2nc(NCc3ccc(S(N)(=O)=O)cc3)nc(Nc3ccc(Oc4ccccc4)cc3)c2cc1OC` registered an XC50 of 445 nM. Take `COc1cc(C(=O)NCc2nn(CCN3CCC(N4CCCC4)CC3)cc2-c2ccc(Cl)c(Cl)c2)cc(OC)c1OC`: the XC50 worked out at 774 nM. Consider `O=C(Nc1cccc(-c2nn3ccccc3c2-c2ccnc(Nc3ccc(C(=O)N4CCOCC4)cc3)n2)c1)c1c(F)cccc1F`, for which the XC50 worked out at 383 nM. Consider `Cc1ccccc1C1CCN(C2CCC(NC(=O)/C=C/c3cc(F)cc(F)c3)CC2)CC1` (centres undefined), for which the XC50 was found to be 833 nM. Regarding `CCCCCN1CCC(NS(=O)(=O)c2cccc(C(=O)Nc3ccc(C(F)(F)F)cc3)c2)C1` (centres undefined), the XC50 came out at 798 nM. For `CCCCCN1CCCC(NS(=O)(=O)c2ccc(C(=O)Nc3ccc(C(F)(F)F)cc3)cc2)C1` (centres undefined), the XC50 is 1630 nM. Compound `OC1CCN(c2cc(-c3ccccn3)nc(-c3ccccn3)n2)CC1` showed an XC50 of 1050 nM.

In turn, `COc1cc(C(=O)N2CCOC(CCN3CCC[C@H]3C(=O)Nc3ccccc3)(c3ccc(Cl)c(Cl)c3)C2)cc(OC)c1OC` (some centres undefined) gave an XC50 of 733 nM. For the compound `CN(CCN)Cc1cccc(-c2cccc(-c3nc4cc(F)ccc4[nH]3)c2)c1`, the XC50 worked out at 785 nM. The compound `O=C(Nc1ccccc1)N(Cc1ccc(-c2cccc(CNC3CCCC3)c2)cc1)C1CCN(Cc2ccccc2)CC1` had an XC50 of 427 nM.

Turning to `CCc1c(CCNCCCC(C)CCNCCc2ccc(OC)c(OC)c2CC)ccc(OC)c1OC` (centres undefined), the XC50 worked out at 1110 nM. Regarding `Fc1ccccc1CNc1ncc(-c2ccsc2)c(-c2nccs2)n1`, the XC50 is 54 nM. The value for `O=C(Nc1cccnc1)c1cc(-c2cc(Cl)ccc2O)n[nH]1` was 719 nM; that for `CN(CC1CCC(NC(=O)/C=C/c2ccc(Cl)c(Cl)c2)CC1)C1CCC(c2c[nH]c3ccccc23)CC1` (centres undefined) was 837 nM. In the case of `Cc1ccc(-n2cc(CNCC3CCN(CCO)CC3)c(-c3ccc(F)cc3)n2)cc1`, the XC50 is 2000 nM. Next, `Cc1ccccc1Cc1cccc(/N=C(\N)Nc2ccc(Cl)cc2)n1`: 676 nM; `N=C(N)c1ccc(NC(=O)Cc2nc3cc(C(=N)N)ccc3[nH]2)cc1`: 1380 nM. `Fc1cccc(Nc2nc(NCc3ccc(Cl)c(Cl)c3)nc(Nc3cccc(F)c3)n2)c1` registered an XC50 of 748 nM.

Compound `NC(CC1CC(=O)N1CC(=O)O)C(=O)O` (centres undefined) registered an XC50 of 156 nM. As for `CCOC(=O)c1cncc(/C=C/c2cc(C)cnc2N)c1`, the XC50 worked out at 424 nM. On to `CN1CCN(c2ccnc3ccc(NC(=O)Cc4ccc(OCc5ccccc5)cc4)cc23)CC1`, for which the XC50 stood at 628 nM.

In the case of `CN1CCN(S(=O)(=O)c2ccc3nccc(Nc4ccc(Oc5ccccc5)cc4)c3c2)CC1`, the XC50 was determined as 818 nM. The value for `O=S(=O)(c1c(Cl)cc(Cl)cc1Cl)N1CCCCC(c2ccc(C(F)(F)F)cc2)=N1` was 95 nM; that for `CCn1c(-c2ccccc2)cc2nnc3ccccc3c21` was 769 nM; that for `Cc1cc(NC(=O)Nc2ccc(C#N)cc2)c2ccccc2n1` was 567 nM. Next, `Cc1cc(NCCC(=O)NCCOc2ccccc2)nc(NCCOc2ccccc2)n1`: 867 nM. With `Cc1cccc(Cl)c1S(=O)(=O)N1CCCCC(c2ccc(C(F)(F)F)cc2)=N1`, the XC50 turned out to be 216 nM. For the compound `Cn1ccnc1CNC(=O)c1ccc(-c2cccc(-c3nc4cc(F)ccc4[nH]3)c2)cc1`, the XC50 came to 980 nM. Compound `COc1cc(NC(=O)/C=C/c2ccccc2Cl)cc(OCCN2CCC(O)(c3ccccc3)CC2)c1` came in with an XC50 of 174 nM.

Turning to `O=C(Nc1ccc(Cl)c(Cl)c1)C1CCC(=O)N1[C@@H](Cc1ccccc1)C(=O)NCCc1ccc(Cl)cc1` (some centres undefined), the XC50 came to 1100 nM. Turning to `COc1ccc(Nc2ncc3c(-c4cccc(NC(=O)Cc5cccnc5)c4)c[nH]c3n2)cc1OC`, the XC50 amounted to 718 nM. The value for `CN(CCN)Cc1ccc(-c2ccc(-c3nc4cc(F)ccc4[nH]3)s2)cc1` was 1070 nM; that for `CCCCC1(NC(=O)[C@H](CC(C)C)Nc2ccc(C#N)c3ccccc23)CCCCC1` was 799 nM.

In turn, `O=C(NCCCCN1CCC(c2ccc3c(c2OCC2COCO2)CCCC3)CC1)c1ccc(-c2ccc(C(F)(F)F)cc2)cc1` (centres undefined) came in with an XC50 of 868 nM.
